Reference: ChEMBL document CHEMBL6083262, “Stereorandomized Oncocins with Preserved Ribosome Binding and Antibacterial Activity” (J Med Chem, 2024)
Active and inactive are the calls of the source. No cut-off for these calls is given here. Non-standard residues stand in square brackets, D forms with d. Residues, ends and D or L forms follow the SMILES beside them. ξ: configuration not given here. ξY = NC(Cc1ccc(O)cc1)C(=O)O; ξR = N=C(N)NCCCC(N)C(=O)O; ξN = NC(=O)CC(N)C(=O)O; Nleu = CC(C)CNCC(=O)O; ξI = CCC(C)C(N)C(=O)O; Nlys = NCCCCNCC(=O)O; ξP = O=C(O)C1CCCN1

Legend:
[1] = Hemolytic activity in human RBC incubated for 4 hrs; type: toxicity, cell-based; settings: erythrocyte
[2] = tested on: Pseudomonas aeruginosa; test: Antimicrobial activity against Pseudomonas aeruginosa PAO1 incubated for 16 to 20 hrs in full muller hinton medium by broth microdilution method; type: functional; settings: time 16-20 hrs
[3] = tested on: Staphylococcus aureus; test: Antimicrobial activity against methicillin-resistant Staphylococcus aureus COL incubated for 16 to 20 hrs in full muller hinton medium by broth microdilution method; type: functional; settings: time 16-20 hrs
[4] = tested on: rRNA; test: Binding affinity to [gamma32 P-ATP] labeled Escherichia coli MG1655 23S ribosomal RNA (5-CCCTTGGGACCTACTTC-3') at U2506 position assessed as increase in band intensity at 1 uM incubated for 2.5 hrs in full muller hinton medium by CMCT based gel electrophoresis; type: nucleic-acid assay
[5] = tested on: Staphylococcus aureus; test: Antimicrobial activity against methicillin-resistant Staphylococcus aureus COL incubated for 16 to 20 hrs in 12.5 % muller hinton medium by broth microdilution method; type: functional; settings: time 16-20 hrs
[6] = tested on: Acinetobacter baumannii; test: Antimicrobial activity against Acinetobacter baumannii ATCC 19606 incubated for 16 to 20 hrs in full muller hinton medium by broth microdilution method; type: functional; settings: time 16-20 hrs

Row | SMILES | MHC [1] | MIC [2] | MIC [3] | Activity [4] | MIC [5] | MIC [6]
1 | CC(C)C[C@H](NC(=O)CN(CC(C)C)C(=O)[C@H](CC(C)C)NC(=O)CN(CCCCN)C(=O)[C@H](CC(C)C)NC(=O)CN(CC(C)C)C(=O)[C@H](CCCCN)NC(=O)CN(CC(C)C)C(=O)[C@H](CC(C)C)NC(=O)CN(CCCCN)C(=O)[C@@H](N)CCCCN)C(N)=O (H-K[Nlys]L[Nleu]K[Nleu]L[Nlys]L[Nleu]L-NH2) | > 2000 µg/mL |  |  |  |  | 
2 | CC[C@H](C)[C@H](NC(=O)[C@H](CCCNC(=N)N)NC(=O)[C@H](CCCNC(=N)N)NC(=O)[C@@H]1CCCN1C(=O)[C@H]1CCCN1C(=O)[C@H](CCCNC(=N)N)NC(=O)[C@@H]1CCCN1C(=O)[C@H](CCCNC(=N)N)NC(=O)[C@@H]1CCCN1C(=O)[C@H](CC(C)C)NC(=O)[C@H](Cc1ccc(O)cc1)NC(=O)[C@@H]1CCCN1C(=O)[C@@H]1CCCN1C(=O)[C@H](CCCCN)NC(=O)[C@H](CC(=O)O)NC(=O)[C@@H](N)C(C)C)C(=O)N[C@@H](Cc1ccc(O)cc1)C(=O)N[C@@H](CC(N)=O)C(=O)N[C@@H](CCCNC(=N)N)C(N)=O (H-VDKPPYLPRPR[dP]PRRIYNR-NH2) | > 1000 µg/mL | > 64 µg/mL | > 64 µg/mL |  |  | 
3 | CC[C@@H](C)[C@@H](NC(=O)[C@@H](CCCNC(=N)N)NC(=O)[C@@H](CCCNC(=N)N)NC(=O)[C@H]1CCCN1C(=O)[C@H]1CCCN1C(=O)[C@H](CCCNC(=N)N)NC(=O)[C@@H]1CCCN1C(=O)[C@H](CCCNC(=N)N)NC(=O)[C@@H]1CCCN1C(=O)[C@H](CC(C)C)NC(=O)[C@H](Cc1ccc(O)cc1)NC(=O)[C@@H]1CCCN1C(=O)[C@@H]1CCCN1C(=O)[C@H](CCCCN)NC(=O)[C@H](CC(=O)O)NC(=O)[C@@H](N)C(C)C)C(=O)N[C@H](Cc1ccc(O)cc1)C(=O)N[C@H](CC(N)=O)C(=O)N[C@H](CCCNC(=N)N)C(N)=O (H-VDKPPYLPRPR[dP][dP][dR][dR][dI][dY][dN][dR]-NH2) | > 1000 µg/mL | > 64 µg/mL | > 64 µg/mL | Active |  | 
4 | CC[C@H](C)[C@H](NC(=O)[C@H](CCCNC(=N)N)NC(=O)[C@H](CCCNC(=N)N)NC(=O)[C@@H]1CCCN1C(=O)[C@@H]1CCCN1C(=O)[C@@H](CCCNC(=N)N)NC(=O)[C@@H]1CCCN1C(=O)[C@H](CCCNC(=N)N)NC(=O)[C@@H]1CCCN1C(=O)[C@H](CC(C)C)NC(=O)[C@H](Cc1ccc(O)cc1)NC(=O)[C@@H]1CCCN1C(=O)[C@@H]1CCCN1C(=O)[C@H](CCCCN)NC(=O)[C@H](CC(=O)O)NC(=O)[C@@H](N)C(C)C)C(=O)N[C@@H](Cc1ccc(O)cc1)C(=O)N[C@@H](CC(N)=O)C(=O)N[C@@H](CCCNC(=N)N)C(N)=O (H-VDKPPYLPRP[dR]PPRRIYNR-NH2) | > 1000 µg/mL | > 64 µg/mL | > 64 µg/mL |  | > 64 µg/mL | 
5 | CC[C@@H](C)[C@@H](NC(=O)[C@@H](CCCNC(=N)N)NC(=O)[C@@H](CCCNC(=N)N)NC(=O)[C@H]1CCCN1C(=O)[C@H]1CCCN1C(=O)[C@@H](CCCNC(=N)N)NC(=O)[C@@H]1CCCN1C(=O)[C@H](CCCNC(=N)N)NC(=O)[C@@H]1CCCN1C(=O)[C@H](CC(C)C)NC(=O)[C@H](Cc1ccc(O)cc1)NC(=O)[C@@H]1CCCN1C(=O)[C@@H]1CCCN1C(=O)[C@H](CCCCN)NC(=O)[C@H](CC(=O)O)NC(=O)[C@@H](N)C(C)C)C(=O)N[C@H](Cc1ccc(O)cc1)C(=O)N[C@H](CC(N)=O)C(=O)N[C@H](CCCNC(=N)N)C(N)=O (H-VDKPPYLPRP[dR][dP][dP][dR][dR][dI][dY][dN][dR]-NH2) | > 1000 µg/mL |  | > 64 µg/mL | Active | > 64 µg/mL | 
6 | CC[C@H](C)[C@H](NC(=O)[C@H](CCCNC(=N)N)NC(=O)[C@H](CCCNC(=N)N)NC(=O)[C@@H]1CCCN1C(=O)[C@@H]1CCCN1C(=O)[C@H](CCCNC(=N)N)NC(=O)[C@H]1CCCN1C(=O)[C@H](CCCNC(=N)N)NC(=O)[C@@H]1CCCN1C(=O)[C@H](CC(C)C)NC(=O)[C@H](Cc1ccc(O)cc1)NC(=O)[C@@H]1CCCN1C(=O)[C@@H]1CCCN1C(=O)[C@H](CCCCN)NC(=O)[C@H](CC(=O)O)NC(=O)[C@@H](N)C(C)C)C(=O)N[C@@H](Cc1ccc(O)cc1)C(=O)N[C@@H](CC(N)=O)C(=O)N[C@@H](CCCNC(=N)N)C(N)=O (H-VDKPPYLPR[dP]RPPRRIYNR-NH2) | > 1000 µg/mL | > 64 µg/mL | > 64 µg/mL |  | > 64 µg/mL | 
7 | CCC(C)C(NC(=O)C(CCCNC(=N)N)NC(=O)C(CCCNC(=N)N)NC(=O)C1CCCN1C(=O)C1CCCN1C(=O)C(CCCNC(=N)N)NC(=O)C1CCCN1C(=O)[C@H](CCCNC(=N)N)NC(=O)[C@@H]1CCCN1C(=O)[C@H](CC(C)C)NC(=O)[C@H](Cc1ccc(O)cc1)NC(=O)[C@@H]1CCCN1C(=O)[C@@H]1CCCN1C(=O)[C@H](CCCCN)NC(=O)[C@H](CC(=O)O)NC(=O)[C@@H](N)C(C)C)C(=O)NC(Cc1ccc(O)cc1)C(=O)NC(CC(N)=O)C(=O)NC(CCCNC(=N)N)C(N)=O (some centres not stated) (H-VDKPPYLPR[ξP][ξR][ξP][ξP][ξR][ξR][ξI][ξY][ξN][ξR]-NH2) | > 1000 µg/mL |  | > 64 µg/mL |  |  | 
8 | CCC(C)C(NC(=O)C(CCCNC(=N)N)NC(=O)C(CCCNC(=N)N)NC(=O)C1CCCN1C(=O)C1CCCN1C(=O)C(CCCNC(=N)N)NC(=O)C1CCCN1C(=O)C(CCCNC(=N)N)NC(=O)[C@@H]1CCCN1C(=O)[C@H](CC(C)C)NC(=O)[C@H](Cc1ccc(O)cc1)NC(=O)[C@@H]1CCCN1C(=O)[C@@H]1CCCN1C(=O)[C@H](CCCCN)NC(=O)[C@H](CC(=O)O)NC(=O)[C@@H](N)C(C)C)C(=O)NC(Cc1ccc(O)cc1)C(=O)NC(CC(N)=O)C(=O)NC(CCCNC(=N)N)C(N)=O (some centres not stated) (H-VDKPPYLP[ξR][ξP][ξR][ξP][ξP][ξR][ξR][ξI][ξY][ξN][ξR]-NH2) | > 1000 µg/mL | > 64 µg/mL | > 64 µg/mL |  |  | 
9 | CCC(C)C(NC(=O)C(CCCNC(=N)N)NC(=O)C(CCCNC(=N)N)NC(=O)C1CCCN1C(=O)C1CCCN1C(=O)C(CCCNC(=N)N)NC(=O)C1CCCN1C(=O)C(CCCNC(=N)N)NC(=O)C1CCCN1C(=O)[C@H](CC(C)C)NC(=O)[C@H](Cc1ccc(O)cc1)NC(=O)[C@@H]1CCCN1C(=O)[C@@H]1CCCN1C(=O)[C@H](CCCCN)NC(=O)[C@H](CC(=O)O)NC(=O)[C@@H](N)C(C)C)C(=O)NC(Cc1ccc(O)cc1)C(=O)NC(CC(N)=O)C(=O)NC(CCCNC(=N)N)C(N)=O (some centres not stated) (H-VDKPPYL[ξP][ξR][ξP][ξR][ξP][ξP][ξR][ξR][ξI][ξY][ξN][ξR]-NH2) | > 1000 µg/mL | > 64 µg/mL | > 64 µg/mL |  |  | 
10 | CC[C@H](C)[C@H](NC(=O)[C@H](CCCNC(=N)N)NC(=O)[C@H](CCCNC(=N)N)NC(=O)[C@@H]1CCCN1C(=O)[C@@H]1CCCN1C(=O)[C@H](CCCNC(=N)N)NC(=O)[C@@H]1CCCN1C(=O)[C@H](CCCNC(=N)N)NC(=O)[C@@H]1CCCN1C(=O)[C@H](CC(C)C)NC(=O)[C@@H](Cc1ccc(O)cc1)NC(=O)[C@@H]1CCCN1C(=O)[C@@H]1CCCN1C(=O)[C@H](CCCCN)NC(=O)[C@H](CC(=O)O)NC(=O)[C@@H](N)C(C)C)C(=O)N[C@@H](Cc1ccc(O)cc1)C(=O)N[C@@H](CC(N)=O)C(=O)N[C@@H](CCCNC(=N)N)C(N)=O (H-VDKPP[dY]LPRPRPPRRIYNR-NH2) | > 1000 µg/mL | > 64 µg/mL | > 64 µg/mL |  |  | > 64 µg/mL
